Experimental data as given in US12576127B2, “Fibroblast binding agents and use thereof” (Orionis Biosciences, Inc., priority 2018, dated 2026).

System: B16BL6 cells
Experiment: B16BL6 tumor model (Example 8)
Type: in vivo, mouse
Settings: p.l. days 7-15, FIGS. 14A-B
Method: Mice were maintained in pathogen-free conditions in a temperature-controlled environment with 12/12 hour light/dark cycles and received food and water ad libitum. Female C57BL/6J mice (Charles River Laboratories, Saint-Germain sur l'Arbresle, France) were inoculated with B16BL6 or MC38 or Panc02 cells, at the age of 8 weeks, using a 30G insulin syringe, in 50 μl suspension, on the shaved flank of briefly sedated mice (using 4% isoflurane). B16BL6 cells are a murine melanoma cell line that are typically used as a model for human skin cancers with increased resistance to doxorubicin. MC38 cells are derived from a murine colon adenocarcinoma and are typically used as a model for human colon cancers. Panc02 cells are derived from a murine pancreatic ductal adenocarcinoma and are typically used as a model for human pancreatic cancers.
All tumor treatments were done perilesionally (p.l.), which is s.c. at the tumor border, starting at day 7 after tumor inoculation. Mice received FAP-AFN or FAP-WTmIFN treatments on days 7, 8, 9, 10, 12, 13, 14 and 15. Control mice were treated with PBS on the same days. FAP-AFN or FAP-VVTmIFN were given about […] (1.8 mg/kg). […]

## COc1cccc2c1C(=O)c1c(O)c3c(c(O)c1C2=O)C[C@@](O)(C(=O)CO)C[C@@H]3O[C@H]1C[C@H](N)[C@H](O)[C@H](C)O1 [doxorubicin]
  tumor growth: tumor stasis at best, but no tumor regression
